According to article PMC3006138, “Fexinidazole – A New Oral Nitroimidazole Drug Candidate Entering Clinical Development for the Treatment of Sleeping Sickness” (PLoS Neglected Tropical Diseases, 2010):
Like-named read-outs stand apart in the source and are kept apart here.

Tests used:
[1] = Rat 28-day toxicokinetics; assay type: in vivo; conditions: plasma, po; for AUC: read-out: AUC within 24 hours post dosing; for half-life: read-out: apparent terminal half-life (converted)
Experimental: In the rat repeated-dose toxicokinetic study, fexinidazole was administered orally by gavage once a day for 28 consecutive days to ten or fifteen Crl:CD (SD)IGS BR rats/sex/group at doses of 50, 200, or 800 mg/kg/day. A control group received the vehicle alone (5% Tween 80/0.5% methocel). Ten animals/sex/group were sacrificed at the end of the treatment period on day 29 or 30 of study. The remaining 5 animals/sex/group in the control and high-dose groups were sacrificed on day 43 at the end of a 2-weeks observation period. Systemic exposure to fexinidazole and its sulfoxide and sulfone metabolites was evaluated in three additional animals/sex/group. Samples were taken at predose, and 30 min, 1, 2, 4, 8 and 24 h after dosing on days 1, 14, and 28, and in addition at 48 and 72 h after treatment on day 28.
Toxicokinetic Report for the study No. 0504-2007
SD Standard deviation of the mean […]
t1/2,z Terminal half-life tmax Time to peak plasma concentration
ULOQ Upper limit of quantification
The study was conducted according to the study protocol and related amendment.
Fexinidazole was orally given by gavage once a day for 28 days to male and female Sprague Dawley rats according to the following scheme
Fexinidazole was suspended with 5% Tween 80 in 0.5% Methyl cellulose 400 cP.
6.2. Sample Collection and Handling
Blood samples (about 0.25 mL/sampling time) were withdrawn from retro-orbital sinus plexus under isofluorane anesthesia and put in heparinized plastic tubes kept on a ice-water bath, then centrifuged for 10 min at 1200g at +4°C and two aliquots of about 50 μL of plasma were stored in a freezer at -80°C until analysis. Blood was taken from three rats/gender/dose on Days 1 and 14 at pre-dose and 0.5, 1, 2, 4, 8 and 24 hours after dosing, on Day 28 at pre-dose and 1, 2, 4, 8, 24, 48 and 72 hours after dosing. After the administration of the vehicle, the samples were taken from three rats/gender at pre-dose and […]
6.3. Bioanalytical Method
Rat plasma concentrations of Fexinidazole and its sulfoxide (M1) and sulfone (M2) metabolites were determined by a validated LC/MS/MS method. The calibration range for the assay was 5-1000 ng/mL for Fexinidazole and 25-25000 ng/mL for M1 and M2.
Study samples containing analytes concentrations above the upper limit of quantitation were diluted with blank matrix prior to analysis.
6.4. Pharmacokinetic Calculations
Pharmacokinetic evaluation was carried out using non-compartmental approach with the aid […]
Excel spreadsheet (Microsoft Inc., Seattle, USA). […]
In the calculations, the undetectable concentrations between detectable ones were ignored.
After each dose level, Cmax and tmax of Fexinidazole and sulfoxide and sulfone metabolites […]
linear trapezoidal rule up to the last detectable concentration. On Day 28, since the blood […]
24 hours post dosing was calculated and denoted AUC0-24. This AUC was calculated in order to compare AUC values on Day 28 to those on Day 1 and Day 14. On Day 28, in addition, the half-life of the terminal phase, t1/2,z, was determined by linear regression analysis of the natural-log concentration vs. time curve, where t1/2,z = ln(2)/slope of the regression line.
Fexinidazole and metabolites accumulation ratios, based on Cmax (RA,Cmax), AUC0-24 (RA,AUC0-24) and AUC0-t(last) (RA,AUC0-t(last)), were calculated as the ratio between the parameters obtained on Day 14 and Day 28 to the corresponding one at Day 1. […]
pharmacokinetic parameters of each compound sorted by dose, gender and day of dosing. […]
compound are reported in Tables 1 and 2, whilst individual and mean parameters of each […]
Individual and mean (±SD, CV%) plasma
2A1 - 19A1 of Appendix 1. Individual plasma concentrations of Fexinidazole and both metabolites are plot in Figures 1 - 9, whilst the mean concentrations are plot in Figures 10 - 15. Mean normalized Cmax and AUC0-t(last) values of Fexinidazole and metabolites vs. dose are plot in Figures 16 - 21.
In-study bioanalytical validation data are reported in Appendix 2. All analytical batches met […]

[2] = One-electron reduction potential by pulse radiolysis; assay type: physicochemical
Experimental: One-electron reduction potentials were determined by pulse radiolysis following an established procedure.

[3] = Sprague Dawley (Crl:CD (SD)IGS BR), 50 mg/kg/day, Day 28, female
[4] = Sprague Dawley (Crl:CD (SD)IGS BR), 50 mg/kg/day, Day 28, male
[5] = Sprague Dawley (Crl:CD (SD)IGS BR), 200 mg/kg/day, Day 28, female
[6] = Sprague Dawley (Crl:CD (SD)IGS BR), 200 mg/kg/day, Day 28, male
[7] = Sprague Dawley (Crl:CD (SD)IGS BR), 800 mg/kg/day, Day 28, female (n=2)
[8] = Sprague Dawley (Crl:CD (SD)IGS BR), 800 mg/kg/day, Day 28, male
[9] = Sprague-Dawley (Crl:CD (SD)IGS BR), 50 mg/kg/day, 50 mg/kg/day po, day 1
[10] = Sprague-Dawley (Crl:CD (SD)IGS BR), 50 mg/kg/day, 50 mg/kg/day po, day 14
[11] = Sprague-Dawley (Crl:CD (SD)IGS BR), 200 mg/kg/day, 200 mg/kg/day po, day 1
[12] = both sexes, Sprague-Dawley (Crl:CD (SD)IGS BR), 200 mg/kg/day, 200 mg/kg/day po, day 14
[13] = both sexes, Sprague-Dawley (Crl:CD (SD)IGS BR), 800 mg/kg/day, 800 mg/kg/day po, day 1
[14] = both sexes, Sprague-Dawley (Crl:CD (SD)IGS BR), 800 mg/kg/day, 800 mg/kg/day po, day 14

`Cn1c([N+](=O)[O-])cnc1COc1ccc([S+](C)[O-])cc1` (stereo not shown) [Fexinidazole sulfoxide] gave an AUC [1, 3] of 53.8 ± 15.7 µg·h/mL, a half-life [1, 3] of 6.1 ± 3.8 h and an AUC [1, 4] of 29.5 ± 8.92 µg·h/mL. It also gave a half-life [1, 4] of 5 ± 2 h, an AUC [1, 5] of 138 ± 14.2 µg·h/mL and a half-life [1, 5] of 8.1 ± 3.1 h. The AUC [1, 6] was 122 ± 29.3 µg·h/mL, the half-life [1, 6] was 6.3 ± 2.9 h and the AUC [1, 7] was 292 ± 40.3 µg·h/mL. For the same molecule, the half-life [1, 7] was 8.6 ± 2.3 h, the AUC [1, 8] was 130 ± 56.8 µg·h/mL and the half-life [1, 8] was 6.6 ± 4.1 h. It also gave a Cmax [1, 9] of 2700 ± 1400 ng/mL, a Tmax [1, 9] of 2.5 ± 1.22 h and an AUC(0-t) ([1]; Sprague-Dawley (Crl:CD (SD)IGS BR), 50 mg/kg/day, 50 mg/kg/day po, day 1, read-out: AUC0-t(last)) of 15.4 ± 9.28 µg·h/mL. The Cmax [1, 10] was 5230 ± 3280 ng/mL, the Tmax [1, 10] was 2.17 ± 0.98 h and the AUC(0-t) ([1]; Sprague-Dawley (Crl:CD (SD)IGS BR), 50 mg/kg/day, 50 mg/kg/day po, day 14, read-out: AUC0-t(last)) was 29.8 ± 19.4 µg·h/mL. It also gave a Cmax [1, 11] of 11400 ± 2170 ng/mL, a Tmax [1, 11] of 2.33 ± 0.82 h and an AUC(0-t) ([1]; both sexes, Sprague-Dawley (Crl:CD (SD)IGS BR), 200 mg/kg/day, 200 mg/kg/day po, day 1, read-out: AUC0-t(last)) of 85.9 ± 14.1 µg·h/mL. It also gave a Cmax [1, 12] of 15800 ± 3170 ng/mL, a Tmax [1, 12] of 3.33 ± 1.03 h and an AUC(0-t) ([1]; both sexes, Sprague-Dawley (Crl:CD (SD)IGS BR), 200 mg/kg/day, 200 mg/kg/day po, day 14, read-out: AUC0-t(last)) of 118 ± 38.9 µg·h/mL. It also gave a Cmax [1, 13] of 31700 ± 3740 ng/mL, a Tmax [1, 13] of 4.67 ± 1.63 h and an AUC(0-t) ([1]; both sexes, Sprague-Dawley (Crl:CD (SD)IGS BR), 800 mg/kg/day, 800 mg/kg/day po, day 1, read-out: AUC0-t(last)) of 410 ± 101 µg·h/mL. It also gave a Cmax [1, 14] of 25000 ± 8990 ng/mL, a Tmax [1, 14] of 2.67 ± 1.03 h and an AUC(0-t) ([1]; both sexes, Sprague-Dawley (Crl:CD (SD)IGS BR), 800 mg/kg/day, 800 mg/kg/day po, day 14, read-out: AUC0-t(last)) of 277 ± 160 µg·h/mL. It also gave a Cmax ([1]; female, Sprague Dawley (Crl:CD (SD)IGS BR), 50 mg/kg, Day 1, female) of 3890 ± 663 ng/mL, an AUC(0-t) ([1]; female, Sprague Dawley (Crl:CD (SD)IGS BR), 50 mg/kg, Day 1, female, read-out: AUC0-t(last)) of 23.2 ± 5.33 µg·h/mL and a Cmax ([1]; female, Sprague Dawley (Crl:CD (SD)IGS BR), 50 mg/kg/day, Day 28, female) of 11400 ± 6600 ng/mL. For the same molecule, the AUC(0-t) ([1]; female, Sprague Dawley (Crl:CD (SD)IGS BR), 50 mg/kg/day, Day 28, female, read-out: AUC0-t(last)) was 78 ± 23.6 µg·h/mL, the Cmax ([1]; female, Sprague Dawley (Crl:CD (SD)IGS BR), 200 mg/kg, Day 1, female) was 12800 ± 1130 ng/mL and the AUC(0-t) ([1]; female, Sprague Dawley (Crl:CD (SD)IGS BR), 200 mg/kg, Day 1, female, read-out: AUC0-t(last)) was 91.4 ± 19.7 µg·h/mL. It also gave a Cmax ([1]; female, Sprague Dawley (Crl:CD (SD)IGS BR), 200 mg/kg/day, Day 28, female) of 22300 ± 1470 ng/mL, an AUC(0-t) ([1]; female, Sprague Dawley (Crl:CD (SD)IGS BR), 200 mg/kg/day, Day 28, female, read-out: AUC0-t(last)) of 153 ± 36.9 µg·h/mL and a Cmax ([1]; female, Sprague Dawley (Crl:CD (SD)IGS BR), 800 mg/kg, Day 1, female) of 30600 ± 2620 ng/mL. The AUC(0-t) ([1]; female, Sprague Dawley (Crl:CD (SD)IGS BR), 800 mg/kg, Day 1, female, read-out: AUC0-t(last)) was 453 ± 84.7 µg·h/mL, the Cmax ([1]; female, Sprague Dawley (Crl:CD (SD)IGS BR), 800 mg/kg/day, Day 28, female (n=2)) was 25800 ± 2050 ng/mL and the AUC(0-t) ([1]; female, Sprague Dawley (Crl:CD (SD)IGS BR), 800 mg/kg/day, Day 28, female (n=2), read-out: AUC0-t(last)) was 331 ± 57.3 µg·h/mL. For the same molecule, the Cmax ([1]; male, Sprague Dawley (Crl:CD (SD)IGS BR), 50 mg/kg, Day 1, male) was 1500 ± 413 ng/mL, the AUC(0-t) ([1]; male, Sprague Dawley (Crl:CD (SD)IGS BR), 50 mg/kg, Day 1, male, read-out: AUC0-t(last)) was 7.66 ± 2.38 µg·h/mL and the Cmax ([1]; male, Sprague Dawley (Crl:CD (SD)IGS BR), 50 mg/kg/day, Day 28, male) was 4530 ± 664 ng/mL. The AUC(0-t) ([1]; male, Sprague Dawley (Crl:CD (SD)IGS BR), 50 mg/kg/day, Day 28, male, read-out: AUC0-t(last)) was 30.6 ± 10.9 µg·h/mL, the Cmax ([1]; male, Sprague Dawley (Crl:CD (SD)IGS BR), 200 mg/kg, Day 1, male) was 9990 ± 2130 ng/mL and the AUC(0-t) ([1]; male, Sprague Dawley (Crl:CD (SD)IGS BR), 200 mg/kg, Day 1, male, read-out: AUC0-t(last)) was 80.5 ± 4.31 µg·h/mL. The Cmax ([1]; male, Sprague Dawley (Crl:CD (SD)IGS BR), 200 mg/kg/day, Day 28, male) was 11600 ± 2400 ng/mL, the AUC(0-t) ([1]; male, Sprague Dawley (Crl:CD (SD)IGS BR), 200 mg/kg/day, Day 28, male, read-out: AUC0-t(last)) was 138 ± 45 µg·h/mL and the Cmax ([1]; male, Sprague Dawley (Crl:CD (SD)IGS BR), 800 mg/kg, Day 1, male) was 32800 ± 4950 ng/mL. It also gave an AUC(0-t) ([1]; male, Sprague Dawley (Crl:CD (SD)IGS BR), 800 mg/kg, Day 1, male, read-out: AUC0-t(last)) of 366 ± 113 µg·h/mL, a Cmax ([1]; male, Sprague Dawley (Crl:CD (SD)IGS BR), 800 mg/kg/day, Day 28, male) of 16600 ± 2080 ng/mL and an AUC(0-t) ([1]; male, Sprague Dawley (Crl:CD (SD)IGS BR), 800 mg/kg/day, Day 28, male, read-out: AUC0-t(last)) of 268 ± 64.1 µg·h/mL. The “single electron redox potential” value [2] was −493 mV.
